# Measured values as given in PMC10541198, “Specific quinone reductase 2 inhibitors reduce metabolic burden and reverse Alzheimer’s disease phenotype in mice” (The Journal of Clinical Investigation, 2023).
# Where “and” joins values, the source holds several entries; their conditions need not be identical. Identical values can stand only once.
# System: 5xFAD mice
# Experiment: Morris water maze in 5xFAD mice
# Assay type: in vivo, mouse
# Details: for MWM escape latency (individual mice): 5xFAD 1 month
# Procedure: We next aimed to test the effect of QR2 inhibition in AD model mice using YB-537, taking advantage of its extremely high specificity, solubility, and lack of toxicity. First, we determined YB-537 pharmacokinetics (PK) and oral bioavailability and assessed any acute observable toxicity in mice. […] We therefore opted to chronically deliver YB-537 to AD-model mice via their drinking water, so they may freely ingest the inhibitor at 50 mg/kg, with minimal intervention or trauma, for 1 month. We chose 9-month-old 5xFAD ([27]) male and female mice in double-blind experiments, so that well-progressed symptoms and pathologies would be present, to mimic clinically relevant cases in human patients ([35]), as has been previously described in this mouse model. Other than an improvement in nest quality ([36]) over time seen in animals receiving YB-537 (starting at age 8 months and ending at age 9 months), no changes to general physical parameters or wellbeing were observed over the 1 month of YB-537 ingestion (Supplemental Figure 6, A–J). Animals received the treatment for a week, and, on week 2, behavioral experiments commenced, including Morris water maze (MWM) and novel object recognition (NOR). These were carried out in parallel, with half of the animals (including both sexes and treatments) undergoing 1 of the paradigms in week 2, and the other in week 3. […] Since learning in this paradigm was slow, and performance was poor even following 6 days of training (using 4 learning trials a day), a test day was not carried out and instead only the learning rate was measured. […] Finally, during week 4, all the mice underwent DFC.
# MWM was carried out as previously described ([57]). Mice were trained 4 times a day, using 60 second trials every 30 minutes during which they were placed into the pool, each time from a different quadrant, and allowed to swim to find the escape platform. All trials were filmed with a video tracking system using EthoVision 14 (Noldus Information Technology), and escape latency, or time to find the submerged escape platform, was determined by video analysis. […]
# Morri s wat er maze ( MWM) was carried out as previously described(58). At the sam e time each consecutive day, mice were placed in the dimly lit room containing the maze for 10 min, within cages containing dry bedding (not the home cages). The maze was obscured by a non-light- permeable curtain. The maze consisted of a 1.2 m pool, with RT (21- 23 °C) water colored light grey, to hide the submerged (under 1- 2 cm) transparent, 10 cm in diam et er plastic escape platform, which was placed at t he south- western quadrant of the pool. Mi ce wer e trained 4 times a day, using 60 s trials ever y 30 min during which t he y were pl a c ed into t he pool, each time fr om a di fferent quadrant, and allowed to swim and find t he escape platform. Upon reaching t he platform, m ice were removed fr om t he pool. If the mice f ai led to find the […] within 60 s, […]
# they were carefully placed on the escape platform and held there for 15 s prior to being taken out of the pool. All trials were filmed with a video tracking system using EthoVision 14 (Noldus Information Technology), andescape latency (time to find the submer ged escape platform) was determined by manual video analysis (due to automated det ect ion settings unable to discern all mice coat c ol or s – bl a c k, white a nd brown - against the opaque water).
# Mice were individually placed within a cage and taken to a dimly lit room containing an open field arena 50 x 50 cm in size. They were gi ve n 10 min prior to be i ng placed within the arena, where f or a period of 5 min they were allowed to explore. Two weeks later, this was repeated. The mice were filmed with an Ikegami ICD-49E camera with EthoVision 14 (Noldus Information Technology). Th e fl oor was ei ther whit e or black,dependingon mous e coat c ol or, to allow automatic analysisof movement par am et ers, apar t from rearing which was manually counted. […]
smiles,measurement,setting,value
Cc1ccc(-c2cn3cccc(C)c3n2)cc1S(=O)(=O)N1CCNCC1 [YB-537],MWM escape latency (individual mice),"both sexes, Day 1",60.0 (8×) and 29.4 and 26.8 and 55.1 and 57.2 and 53.5 (2×) and 41.6 and 50.9
same,MWM escape latency (individual mice),"both sexes, Day 2",60.0 (6×) and 28.0 and 23.5 and 59.7 and 50.7 and 45.3 and 33.5 and 15.1 and 54.5 and 36.1 and 58.0
same,MWM escape latency (individual mice),"both sexes, Day 3",48.7 and 59.3 and 42.1 and 33.7 and 34.3 and 45.6 and 37.0 and 60.0 (2×) and 49.6 and 35.1 and 26.9 and 13.8 and 47.4 and 47.7 and 54.0
same,MWM escape latency (individual mice),"both sexes, Day 4, in s (unit assumed)",44.6 and 57.9 and 24.5 and 37.5 and 31.1 and 37.6 and 51.0 and 60.0 and 52.1 and 34.3 and 5.9 and 14.1 and 13.3 and 23.0 and 48.5 and 53.9
same,MWM escape latency (individual mice),"both sexes, Day 5, in s (unit assumed)",19.0 and 40.4 and 25.1 and 16.2 and 18.6 and 45.8 and 60.0 and 50.4 and 37.0 and 38.2 and 5.7 and 19.6 and 7.3 and 21.1 and 16.8 and 48.8
same,MWM escape latency (individual mice),"both sexes, Day 6",39.3 and 17.9 and 20.3 and 12.9 and 14.8 and 34.0 and 50.7 and 60.0 and 14.1 and 16.8 and 5.6 and 7.2 (2×) and 16.3 and 19.0 and 27.9
same,MWM escape latency (individual mice),"males, Day 5, in s (unit assumed)",16.2 and 18.6 and 45.8 and 60.0
same,spatial learning in MWM (escape latency over 6 days),"5xFAD, 50 mg/kg in drinking water, 1 month, both sexes",trend toward faster spatial learning
